Results taken from patent US20260285875A1, “INHIBITORS OF PARG” (858 Therapeutics, Inc., priority 2023, published 2026).

These compounds were tested against T1, cellular PARG (Homo sapiens, UniProt Q86W56) (assay: Nuclear PAR accumulation assay (immunofluorescence high-content imaging, MMS-treated HeLa cells)). Conditions: 1 hour compound then MMS 50 μg/mL for an additional hour.
T1 construct: endogenous in cells; host or cells: HeLa
Assay type: cell-based
In short: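 HeLa cells pretreated with compound for 1 h at 37° C, then given 50 μg/mL MMS for another hour. After methanol fixation, PAR was immunostained with DAPI nuclear counterstain; per-nucleus intensity and percent PAR-positive cells were imaged at 20× (≥1,000 cells/well). IC50 from four-parameter logistic fit.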

T1 sequence (Q86W56 whole entry): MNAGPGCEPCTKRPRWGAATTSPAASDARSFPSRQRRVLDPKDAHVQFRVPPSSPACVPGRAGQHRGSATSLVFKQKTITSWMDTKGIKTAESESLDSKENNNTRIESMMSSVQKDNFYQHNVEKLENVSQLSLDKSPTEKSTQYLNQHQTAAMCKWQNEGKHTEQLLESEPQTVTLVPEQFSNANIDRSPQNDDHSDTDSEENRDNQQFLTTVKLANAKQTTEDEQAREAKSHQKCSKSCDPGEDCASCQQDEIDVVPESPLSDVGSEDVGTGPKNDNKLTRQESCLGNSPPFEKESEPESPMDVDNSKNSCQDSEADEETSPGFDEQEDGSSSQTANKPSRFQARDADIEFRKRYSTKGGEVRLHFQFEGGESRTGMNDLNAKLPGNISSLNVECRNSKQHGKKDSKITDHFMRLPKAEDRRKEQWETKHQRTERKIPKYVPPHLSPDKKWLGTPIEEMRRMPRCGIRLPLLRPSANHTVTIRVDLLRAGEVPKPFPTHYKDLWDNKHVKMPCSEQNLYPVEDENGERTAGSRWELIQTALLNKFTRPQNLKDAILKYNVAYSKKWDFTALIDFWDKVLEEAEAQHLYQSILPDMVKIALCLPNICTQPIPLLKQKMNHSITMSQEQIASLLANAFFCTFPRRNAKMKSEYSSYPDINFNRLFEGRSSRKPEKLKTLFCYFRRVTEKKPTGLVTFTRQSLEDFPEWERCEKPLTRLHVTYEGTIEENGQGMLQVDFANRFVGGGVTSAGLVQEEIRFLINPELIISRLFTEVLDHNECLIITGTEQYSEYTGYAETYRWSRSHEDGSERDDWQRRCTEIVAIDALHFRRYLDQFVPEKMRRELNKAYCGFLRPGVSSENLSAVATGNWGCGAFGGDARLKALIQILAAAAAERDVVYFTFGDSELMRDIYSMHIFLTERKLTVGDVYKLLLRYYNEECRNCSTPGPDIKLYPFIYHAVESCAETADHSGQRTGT

Row | Structure (SMILES) | IC50
1 | Cc1cc(F)ccc1-c1cc(S(=O)(=O)NC2(C)CC2)cc2c1N1CCN=C1N(Cc1cnn(C)c1)C2=O [Example 20, 9-(4-fluoro-2-methylphenyl)-4-((1-methyl-1H-pyrazol-4-yl)methyl)-N-(1-methylcyclopropyl)-5-oxo-1,2,4,5-tetrahydroimidazo[1,2-a]quinazoline-7-sulfonamide] | < 100 nM
2 | COc1cc(C#CC2CN=C3N(C)C(=O)c4cc(S(=O)(=O)NC5(C)CC5)ccc4N32)ccn1 (centres unmarked) [Example 227, 1-((2-methoxypyridin-4-yl)ethynyl)-4-methyl-N-(1-methylcyclopropyl)-5-oxo-1,2,4,5-tetrahydroimidazo[1,2-a]quinazoline-7-sulfonamide] | < 100 nM
3 | Cn1cc(CN2C(=O)c3cc(S(=O)(=O)NC4(C)CC4)ccc3N3C2=NC[C@H]3C#Cc2ccnn2C(F)F)cn1 [Example 210, (R)-1-((1-(difluoromethyl)-1H-pyrazol-5-yl)ethynyl)-4-((1-methyl-1H-pyrazol-4-yl)methyl)-N-(1-methylcyclopropyl)-5-oxo-1,2,4,5-tetrahydroimidazo[1,2-a]quinazoline-7-sulfonamide] | < 100 nM
4 | C[C@@H]1CN=C2N(Cc3cnn4c3CNCC4)C(=O)c3cc(S(=O)(=O)NC4(C)CC4)ccc3N21 [Example 177, (R)-1-methyl-N-(1-methylcyclopropyl)-5-oxo-4-((4,5,6,7-tetrahydropyrazolo[1,5-a]pyrazin-3-yl)methyl)-1,2,4,5-tetrahydroimidazo[1,2-a]quinazoline-7-sulfonamide] | 100 to 1000 nM
5 | [2H]C([2H])(c1cnn(C)c1)N1C(=O)c2cc(S(=O)(=O)NC3(C)CC3)c(F)cc2N2CC(C)(C)N=C21 [Example 274, 8-fluoro-2,2-dimethyl-4-((1-methyl-1H-pyrazol-4-yl)methyl-d2)-N-(1-methylcyclopropyl)-5-oxo-1,2,4,5-tetrahydroimidazo[1,2-a]quinazoline-7-sulfonamide] | < 100 nM
6 | CCN1C(=O)c2cc(S(=O)(=O)NC3(C)CC3)ccc2N2C1=NC[C@H]2C#Cc1c2ncccc2nn1C [Example 208, (R)-4-ethyl-1-((2-methyl-2H-pyrazolo[4,3-b]pyridin-3-yl)ethynyl)-N-(1-methylcyclopropyl)-5-oxo-1,2,4,5-tetrahydroimidazo[1,2-a]quinazoline-7-sulfonamide] | < 100 nM
7 | C[C@@H]1C[C@@H](C)N2C(=N1)N(Cc1cnn(C)c1)C(=O)c1cc(S(=O)(=O)NC3(C)CC3)ccc12 [Example 236, (1R,3R)-1,3-dimethyl-5-((1-methyl-1H-pyrazol-4-yl)methyl)-N-(1-methylcyclopropyl)-6-oxo-2,3,5,6-tetrahydro-1H-pyrimido[1,2-a]quinazoline-8-sulfonamide] | < 100 nM
8 | CN1C(=O)c2cc(S(=O)(=O)NC3(C)CC3)ccc2N2C1=NC[C@H]2C#Cc1cnn(C)c(=O)c1 [Example 199, (R)-4-methyl-1-((1-methyl-6-oxo-1,6-dihydropyridazin-4-yl)ethynyl)-N-(1-methylcyclopropyl)-5-oxo-1,2,4,5-tetrahydroimidazo[1,2-a]quinazoline-7-sulfonamide] | < 100 nM
9 | [2H]C([2H])(c1cnn(C)c1)N1C(=O)c2cc(S(=O)(=O)NC3(C)CC3)ccc2N2C1=NC[C@H]2C#Cc1cncc(N(C)C)c1 [Example 253, (R)-1-((5-(dimethylamino)pyridin-3-yl)ethynyl)-4-((1-methyl-1H-pyrazol-4-yl)methyl-d2)-N-(1-methylcyclopropyl)-5-oxo-1,2,4,5-tetrahydroimidazo[1,2-a]quinazoline-7-sulfonamide] | < 100 nM
10 | CN(C)CC#C[C@@H]1CN=C2N(Cc3cnn(C)c3)C(=O)c3cc(S(=O)(=O)NC4(C)CC4)cc(Cl)c3N21 [Example 100, (R)-9-chloro-1-(3-(dimethylamino)prop-1-yn-1-yl)-4-((1-methyl-1H-pyrazol-4-yl)methyl)-N-(1-methylcyclopropyl)-5-oxo-1,2,4,5-tetrahydroimidazo[1,2-a]quinazoline-7-sulfonamide] | < 100 nM
11 | C[C@@H]1CN=C2N(Cc3cnn(C)c3)C(=O)c3cc(S(=O)(=O)NC4(C)CC4)cc(N4CC[C@H](N)C4)c3N21 [Example 75, (R)-9-((S)-3-aminopyrrolidin-1-yl)-1-methyl-4-((1-methyl-1H-pyrazol-4-yl)methyl)-N-(1-methylcyclopropyl)-5-oxo-1,2,4,5-tetrahydroimidazo[1,2-a]quinazoline-7-sulfonamide] | 100 to 1000 nM

Next, values leading:

Row | IC50 | Structure (SMILES)
12 | < 100 nM | [2H]C([2H])(c1cnn(C)c1)N1C(=O)c2cc(S(=O)(=O)NC3(C)CC3)ccc2N2C1=NC[C@H]2C#CCC(C)C [Example 96, (R)-4-((1-methyl-1H-pyrazol-4-yl)methyl-d2)-N-(1-methylcyclopropyl)-1-(4-methylpent-1-yn-1-yl)-5-oxo-1,2,4,5-tetrahydroimidazo[1,2-a]quinazoline-7-sulfonamide]
13 | 100 to 1000 nM | COc1ccc(CN2C(=O)c3cc(S(=O)(=O)NC4(C)CC4)ccc3N3C2=N[C@H]2CCC[C@H]23)cn1 [Example 273, (7aS,10aR)-6-((6-methoxypyridin-3-yl)methyl)-N-(1-methylcyclopropyl)-5-oxo-6,7a,8,9,10,10a-hexahydro-5H-cyclopenta[4,5]imidazo[1,2-a]quinazoline-3-sulfonamide]
14 | < 100 nM | C#C[C@@H]1CN=C2N(C)C(=O)c3cc(S(=O)(=O)NC4(C)CC4)cc(Br)c3N21 [Example 38, (R)-9-bromo-1-ethynyl-4-methyl-N-(1-methylcyclopropyl)-5-oxo-1,2,4,5-tetrahydroimidazo[1,2-a]quinazoline-7-sulfonamide]
15 | < 100 nM | [2H]C([2H])(c1cnn(C)c1)N1C(=O)c2cc(S(=O)(=O)NC3(C)CC3)ccc2N2C1=NC[C@H]2C#CCN(C)C [Example 55, (R)-1-(3-(dimethylamino)prop-1-yn-1-yl)-4-((1-methyl-1H-pyrazol-4-yl)methyl-d2)-N-(1-methylcyclopropyl)-5-oxo-1,2,4,5-tetrahydroimidazo[1,2-a]quinazoline-7-sulfonamide]
16 | < 100 nM | [2H]C([2H])(c1cnn(C)c1)N1C(=O)c2cc(S(=O)(=O)NC3(C)CC3)ccc2N2C1=NC[C@H]2C#Cc1nn(C)nc1C [Example 266, (R)-1-((2,5-dimethyl-2H-1,2,3-triazol-4-yl)ethynyl)-4-((1-methyl-1H-pyrazol-4-yl)methyl-d2)-N-(1-methylcyclopropyl)-5-oxo-1,2,4,5-tetrahydroimidazo[1,2-a]quinazoline-7-sulfonamide]
17 | 1000 to 10000 nM | [2H]C([2H])(c1cnn(C)c1)N1C(=O)c2cc(S(=O)(=O)NC3(C)CC3)ccc2N2C1=NCC2CNc1ccccn1 (centres unmarked) [Example 131, 4-((1-methyl-1H-pyrazol-4-yl)methyl-d2)-N-(1-methylcyclopropyl)-5-oxo-1-((pyridin-2-ylamino)methyl)-1,2,4,5-tetrahydroimidazo[1,2-a]quinazoline-7-sulfonamide]
18 | 100 to 1000 nM | C=Cc1ccc(CN2C(=O)c3cc(S(=O)(=O)NC4(C)CC4)ccc3N3C2=NC[C@H]3C)cn1 [Example 254, (R)-1-methyl-N-(1-methylcyclopropyl)-5-oxo-4-((6-vinylpyridin-3-yl)methyl)-1,2,4,5-tetrahydroimidazo[1,2-a]quinazoline-7-sulfonamide]
19 | < 100 nM | [2H]C([2H])(c1cnn(C)c1)N1C(=O)c2cc(S(=O)(=O)NC3(C)CC3)ccc2N2C1=NC[C@H]2C#Cc1cncnc1 [Example 246, (R)-4-((1-methyl-1H-pyrazol-4-yl)methyl-d2)-N-(1-methylcyclopropyl)-5-oxo-1-(pyrimidin-5-ylethynyl)-1,2,4,5-tetrahydroimidazo[1,2-a]quinazoline-7-sulfonamide]
20 | < 100 nM | CN(C)CC#C[C@@H]1CN=C2N(C)C(=O)c3cc(S(=O)(=O)NC4(C)CC4)cc(Cl)c3N21 [Example 56, (R)-9-chloro-1-(3-(dimethylamino)prop-1-yn-1-yl)-4-methyl-N-(1-methylcyclopropyl)-5-oxo-1,2,4,5-tetrahydroimidazo[1,2-a]quinazoline-7-sulfonamide]
21 | < 100 nM | CSCC#C[C@@H]1CN=C2N(Cc3cnn(C)c3)C(=O)c3cc(S(=O)(=O)NC4(C)CC4)ccc3N21 [Example 164, (R)-4-((1-methyl-1H-pyrazol-4-yl)methyl)-N-(1-methylcyclopropyl)-1-(3-(methylthio)prop-1-yn-1-yl)-5-oxo-1,2,4,5-tetrahydroimidazo[1,2-a]quinazoline-7-sulfonamide]
22 | < 100 nM | C[C@@H]1CN=C2N(Cc3cnn(C)c3)C(=O)c3cc(S(=O)(=O)NC4(C)CC4)cc(C4CC4)c3N21 [Example 1, (R)-9-cyclopropyl-1-methyl-4-((1-methyl-1H-pyrazol-4-yl)methyl)-N-(1-methylcyclopropyl)-5-oxo-1,2,4,5-tetrahydroimidazo[1,2-a]quinazoline-7-sulfonamide]
23 | 1000 to 10000 nM | C[C@@H]1CN=C2N(C)C(=O)c3cc(S(=O)(=O)NC4(C)CC4)cc(-c4ccccc4C#N)c3N21 [Example 63, (R)-9-(2-cyanophenyl)-1,4-dimethyl-N-(1-methylcyclopropyl)-5-oxo-1,2,4,5-tetrahydroimidazo[1,2-a]quinazoline-7-sulfonamide]
24 | 100 to 1000 nM | Cn1cc(CN2C(=O)c3cc(S(=O)(=O)NC4(C)CC4)ccc3N3C2=NCC3C#Cc2ccncn2)cn1 (centres unmarked) [Example 132, 4-((1-methyl-1H-pyrazol-4-yl)methyl)-N-(1-methylcyclopropyl)-5-oxo-1-(pyrimidin-4-ylethynyl)-1,2,4,5-tetrahydroimidazo[1,2-a]quinazoline-7-sulfonamide]
25 | < 100 nM | Cc1cc(F)ccc1-c1cc(S(=O)(=O)NC2(C)CC2)cc2c1N1CC(C)(C)N=C1N(Cc1cnn(C)c1)C2=O [Example 25, 9-(4-fluoro-2-methylphenyl)-2,2-dimethyl-4-((1-methyl-1H-pyrazol-4-yl)methyl)-N-(1-methylcyclopropyl)-5-oxo-1,2,4,5-tetrahydroimidazo[1,2-a]quinazoline-7-sulfonamide]
26 | < 100 nM | CN1C(=O)c2cc(S(=O)(=O)NC3(C)CC3)ccc2N2C1=NCC2C#Cc1cncc(C#N)c1 (centres unmarked) [Example 134, 1-((5-cyanopyridin-3-yl)ethynyl)-4-methyl-N-(1-methylcyclopropyl)-5-oxo-1,2,4,5-tetrahydroimidazo[1,2-a]quinazoline-7-sulfonamide]
